In article PMC3578765 (PLoS Neglected Tropical Diseases, 2013):
Like-named read-outs stand apart in the source and are kept apart here.

What was measured:
[1] = test system: BR DEN2 01-01 infection of Huh-7.5; experiment: assay validation with reference compounds, 10-pt DRC of percent infection; format: cell-based, Dengue virus
Description: (§1) An immunofluorescence assay (IFA) used to detect dengue infection was optimized for the dengue HT/HCA. Briefly, cells were fixed with 4% (w/v) paraformaldehyde (PFA) for 20 min at room temperature (Rm T). PFA-fixed cells were treated with 0.25% (v/v) Triton-X for 20 min at Rm T. DENV-infected cells were detected by probing with 4G2 mAb prepared in blocking buffer: DPBS containing 5% FBS for 30 min at 37°C, followed by AlexaFluor-conjugated goat anti-mouse IgG (H+L) (Invitrogen Molecular Probes, USA) prepared in blocking buffer for 30 min at 37°C. Cell nuclei counterstained with 5 µg/mL 4′,6-diamidino-2-phenylindole (DAPI, Sigma-Aldrich, USA). Two washing cycles of DPBS was done after each step of the IFA. After the final washing, digital images were acquired using a high-throughput confocal fluorescence imaging system (Evotec Technologies High-Throughput Cell Analyzer Opera, Perkin Elmer, USA). The digital images were taken from 3 different fields of each well at 20× magnification.
(§2) Acquired images were analyzed using our in-house developed image-mining platform (IM). This platform is designed to do high-content screening and directly access the database of images that were sequentially analyzed with specially designed algorithms developed as a customized plug-in to the IM platform. The results of all the analyses were stored in a centralized database. […] One channel (DAPI-channel) captures the signal emitted by DAPI-stained nuclei at 450 nm, while the other channel (A488-channel) captures the signal emitted by the AlexaFluor 488 dye bound to the dengue E protein-antibody complexes confined in the cytoplasm of dengue-infected cells at 540 nm. To define the percentage of dengue-infected cells and, conversely the non-infected cells, a modified watershed method was applied. Compared to the original watershed algorithm that uses the morphological gradient image, a weighted gradient image is used for the topographic surface, whose weights are defined as the ridge values computed from the eigen values of the original image. The percentage of non-infected cells, which is also defined as the percent inhibition or percent activity, is derived by using the formula: [1−(A488-positive cells/total cells)]×100%.
(§3) In both validation experiments, Huh-7.5 was mixed with DENV1, DENV2, DENV3 or DENV4 at a M.O.I. of 0.5 or VM only for MOCK-infection and dispensed in designated wells using the Thermo Scientific WellMate automated liquid dispenser. For the first validation experiment, the statistical reliability of the dengue HT/HCA was determined by calculating the Z'-factor for the percent infection or percent inhibition. Briefly, the Z'-factor of a defined parameter is calculated using the formula: 1−[(3σp+3σn)/(|μp−μn|)], where the μp, μn, σp and σn are the means (μ) and standard deviations (σ) of the positive (p) and negative (n) controls. For the second validation experiment, the reference compounds were prepared in 2-fold serial dilutions and dispensed in duplicate wells in the 384-well plate, followed by the Huh-7.5 and DENV mixture (M.O.I. 0.5). Percent infection, percent inhibition, and percent cell number were determined using the customized IM platform plug-in. Scatter-plot distribution was generated using TIBCO Spotfire 4.5.0 (TIBCO Software Inc., Somerville, MA). The ten-point dose-response curves (10-pt DRCs) were plotted using the non-linear regression formula: log (inhibitor) vs. response – variable slope (4 parameters), available in GraphPad Prism 5.04 (GraphPad Software Inc., San Diego, CA). The top and bottom values of the reference compounds were unconstrained when the curve fittings of the 10-pt. DRCs were generated.

Huh-7.5 = experiment: assay validation with reference compounds, percent cell number in DENV2-infected Huh-7.5; conditions: percent cell number normalized against MOCK-infected Huh-7.5, DENV2-infected cells
Description: Acquired images were analyzed using our in-house developed image-mining platform (IM). This platform is designed to do high-content screening and directly access the database of images that were sequentially analyzed with specially designed algorithms developed as a customized plug-in to the IM platform. The results of all the analyses were stored in a centralized database. […] To define the percentage of dengue-infected cells and, conversely the non-infected cells, a modified watershed method was applied. Compared to the original watershed algorithm that uses the morphological gradient image, a weighted gradient image is used for the topographic surface, whose weights are defined as the ridge values computed from the eigen values of the original image. The percentage of non-infected cells, which is also defined as the percent inhibition or percent activity, is derived by using the formula: [1−(A488-positive cells/total cells)]×100%.
as §3, with “The ten-point dose-response curves (10-pt DRCs) were plotted using the non-linear regression formula: log (inhibitor) vs. response – variable slope (4 parameters), available in GraphPad Prism 5.04 (GraphPad Software Inc., San Diego, CA).” left out
Similarly, the percent cell number was normalized based on the measured cell number in MOCK-infected (100% cell number) controls according to the formula: % cell number = (Cmeasured/μCMOCK-infect)×100%, where Cmeasured is the measured cell number in the test well and μCMOCK-infect is the average cell number in the MOCK-infected controls. The statistical validity of the dengue high-throughput screening was determined by calculating for the Z'-factor using the 0.5% DMSO-treatment and MOCK-infected Huh-7.5 as negative and positive controls, respectively. In addition, other parameters, including DRC of a reference compound, were used to evaluate the assay performance.

[2] = test system: DENV1 (Den1 BR/90) infection in Huh-7.5; experiment: image-based dengue HT/HCA, 10-pt dose-response hit confirmation, DENV1; format: cell-based; conditions: Dengue virus, read-out: EC50 DENV1
Description: as §1, §2
(§4) The BioFocus kinase inhibitor library were screened against DENV1, DEN2, DENV3 and DENV4 at 10 µM in 0.5% (v/v) DMSO. MOCK-infected Huh-7.5 and IFN-α2A (500 U/mL) were used as positive controls, and the 0.5% DMSO vehicle was used as negative control. Four sets of 15 384-well plates (13 plates designated for test compounds and 2 plates designated for DMSO vehicle control) were used for the primary screening of the BioFocus kinase inhibitor library against each dengue serotype. Each of the 4,000 compounds in the library was tested in single wells. For data normalization and quality control of the screening, each test compound plate contained 16 replicates of the positive and negative controls. After dispensing the test compounds IFN-α2A and DMSO vehicle in the 384-well plates, Huh-7.5 was mixed with DENV1, DENV2, DENV3, or DENV4 to achieve a M.O.I. of 0.5 and dispensed at 5×10^3 cells/well using the Thermo Scientific WellMate automated liquid dispenser. For the MOCK-infected Huh-7.5, the cells were mixed with VM and dispensed under the same conditions as previously stated. Virus infection in the presence of the compounds proceeded at 37°C, 5% CO2 for 96 hrs. Compound activity based on percent inhibition and cell toxicity was assessed by IFA and IM analysis as described above. Scatter-plot distribution of the entire screening was generated using TIBCO Spotfire 4.5.0 (TIBCO Software Inc., Somerville, MA).
(§5) The calculated activity was normalized to a percent inhibition (PI) based on the MOCK-infected cells (100% activity, or zero infection) and dengue-infected cells (0% activity, or maximum measured infection percentage) controls according to the formula: [drawing 1] where: PImeasured - percent inhibition of test compound […]

[3] = test system: DENV2 (BR DEN2 01-01) infection in Huh-7.5; experiment: image-based dengue HT/HCA, 10-pt dose-response hit confirmation, DENV2; format: cell-based; conditions: Dengue virus, read-out: EC50 DENV2
Description: as §1, §2, §4, §5

[4] = test system: DENV3 (BR DEN3 290-02) infection in Huh-7.5; experiment: image-based dengue HT/HCA, 10-pt dose-response hit confirmation, DENV3; format: cell-based; conditions: Dengue virus, read-out: EC50 DENV3
Description: as §1, §2, §4, §5

[5] = test system: DENV4 (DEN4 TVP-360) infection in Huh-7.5; experiment: image-based dengue HT/HCA, 10-pt dose-response hit confirmation, DENV4; format: cell-based; conditions: Dengue virus, read-out: EC50 DENV4
Description: as §1, §2, §4, §5

[6] = compound toxicity, resazurin reduction assay in uninfected Huh-7.5; format: cell-based; conditions: human, uninfected Huh-7.5 cells, Huh-7.5 without viral infection, 10-pt DRC
Description: The hits identified from the primary screening were also tested at 10 µM against CHIKV-118-GFP infection in HuH-7 cells and evaluated by resazurin reduction assay (RRA). Resazurin (7-Hydroxy-3H-phenoxazin-3-one 10-oxide) is reduced to the red fluorescent resorufin by redox enzymes produced by viable cells, and is a good indication of metabolic capacity, and by extension cell viability. The amount of converted resorufin was measured as relative fluorescence readout (RFU) at excitation/emission of 531/572 nm using a fluorescence spectrophotometer (Victor^3 V Spectrophotometer, Perkin Elmer, USA). Briefly, cells were inoculated with CHIKV-118-GFP at an M.O.I. of 0.5 and seeded in 384-well plates containing reference and primary hit compounds and incubated under humidified conditions for 72 hrs at 37°C. Resazurin solution was added to a final concentration of 10 µM and further incubated for another 12 hrs prior to measurement of RFU. The percent activity of the compounds, reflected by the percent cell viability, was quantified by normalizing against the RFUs of MOCK-infected cells and CHIKV-118-GFP-infected cells. Compounds resulting in normalized RFU ≥70% were considered as positive hits for anti-CHIKV activity.
To confirm the compound activity against dengue viruses, the selected hits from the primary screening were tested in a 10-pt. DRC (2-fold serial dilution from 50 µM) using the same assay described for the dengue HT/HCA. Each concentration of the hit compounds was tested in duplicate wells. Data generated from image analysis of the 10-pt. DRC was plotted and analyzed using the non-linear regression formula: log (inhibitor) vs. response – […] (4 parameters) in GraphPad Prism 5.04. […] Compound toxicity was determined by testing the hit compounds in a 10-pt. DRC against Huh-7.5 in the absence of viral infection and measuring the cell viability using resazurin reduction assay as described above. […] Confirmed hits were selected based on their Selectivity Index (SI), a dimensionless value that indicates the magnitude between cytotoxic concentration and effective concentration, and is calculated as: SI = CC50/EC50.

[7] = percent infection normalized against DENV2-infected Huh-7.5, M.O.I. 0.5, read-out: IC50
[8] = DENV1, Huh7.5, Huh-7.5, M.O.I. 0.5, 96 hrs
[9] = DENV2, Huh7.5, Huh-7.5, M.O.I. 0.5, 96 hrs
[10] = DENV3, Huh7.5, Huh-7.5, M.O.I. 0.5, 96 hrs
[11] = DENV4, Huh7.5, Huh-7.5, M.O.I. 0.5, 96 hrs

Compound | IC50 [1, 7] | CC50 (Huh-7.5) | EC50 [2, 8] | EC50 [3, 9] | EC50 [4, 10] | EC50 [5, 11] | CC50 at 72 h [6] | further results
C=CCNC(=O)c1cc([N+](=O)[O-])cc2c(=O)[nH]c(Nc3ccc(Cl)c(Cl)c3)nc12 [AZ 10417808] | 82.3 µM | 148 µM |  |  |  |  |  | 
CCN(CC)CC1CCN(c2ncc3ncnc(Nc4ccc(F)c(Cl)c4)c3n2)CC1 [BIBU 1361] | 4.34 µM | 4.5 µM |  |  |  |  |  | 
NC(Cc1ccc(Cl)cc1)c1csc(Nc2ccc(S(N)(=O)=O)cc2)n1 (stereo not shown) [CND0968] |  |  | > 25 µM | 6.4 µM | 6.2 µM | 1.1 µM | 29 µM | 
CCCc1cnc(Nc2nc(C(N)Cc3ccccc3)cs2)nc1 (stereo not shown) [CND0975] |  |  | 1 µM | 5.5 µM | > 50 µM | > 50 µM | 44 µM | 
COc1ccc(CC(N)c2csc(Nc3nccc(NCc4ccco4)n3)n2)cc1 (stereo not shown) [CND1020] |  |  | 3.9 µM |  |  |  | 25 µM | EC50 ([3]; DENV2, Huh7.5, 96 h): 13 µM; EC50 ([4]; DENV3, Huh7.5, 96 h): 3.4 µM; EC50 ([5]; DENV4, Huh7.5, 96 h): 19 µM
NC(Cc1ccccc1)c1csc(Nc2ccccn2)n1 (stereo not shown) [CND1043] |  |  |  | 3.1 µM | 5.7 µM | 6.9 µM | 43 µM | EC50 ([2]; Huh7.5, 96 h): 4.1 µM
COc1cccc(Nc2nc(C(N)CC(C)C)cs2)n1 (stereo not shown) [CND1057] |  |  | 3.3 µM | 1 µM | 2.9 µM | 10 µM | 23 µM | 
NC(Cc1ccc(C(F)(F)F)cc1)c1csc(Nc2ncccn2)n1 (stereo not shown) [CND1081] |  |  | 1.5 µM | 2.1 µM | 3.1 µM | 12 µM | > 100 µM | 
NC(Cc1ccc(C(F)(F)F)cc1)c1csc(Nc2nccc(NCCCO)n2)n1 (stereo not shown) [CND1172] |  |  | 7.3 µM | 10.4 µM | 4.8 µM | 7.5 µM | 15 µM | 
CS(=O)(=O)c1cnc(Nc2nc(C(N)Cc3ccc(Cl)cc3)cs2)nc1 (stereo not shown) [CND1244] |  |  | 1.7 µM | 2.9 µM | 1.6 µM | 4.4 µM | 21 µM | 
CCN(CC)CCCC(C)Nc1ccnc2cc(Cl)ccc12 (stereo not shown) [Chloroquine] |  |  |  |  |  |  |  | IC50 ([1]; Dengue virus, DENV2, Huh7.5): 17.4 µM
CN1c2cc3c(cc2N=C(c2ccc(C(=O)O)cc2)c2ccccc21)C(C)(C)CCC3(C)C [LE 135] | 11.7 µM | 23.9 µM |  |  |  |  |  | 
Cc1c(-c2ccc(O)cc2)nn(-c2ccc(O)cc2)c1-c1ccc(OCCN2CCCCC2)cc1 [MPP] | 6.85 µM | 5.86 µM |  |  |  |  |  | 
